Patent US20260364079A1 (Principia Biopharma Inc., priority 2022, published 2026)

Columns and labels:
251 kinases = test: broad kinase enzyme inhibition panel; format: biochemical; details: 1 μM
[1] = patients with chronic lymphatic leukemia; cited from earlier work
[2] = in vivo; cited from earlier work
[3] = Phase 2 trial; cited from earlier work
BTK = BTK (Homo sapiens, UniProt Q06187); details: healthy volunteers, cited from earlier work
Sequence of BTK (Q06187 whole entry): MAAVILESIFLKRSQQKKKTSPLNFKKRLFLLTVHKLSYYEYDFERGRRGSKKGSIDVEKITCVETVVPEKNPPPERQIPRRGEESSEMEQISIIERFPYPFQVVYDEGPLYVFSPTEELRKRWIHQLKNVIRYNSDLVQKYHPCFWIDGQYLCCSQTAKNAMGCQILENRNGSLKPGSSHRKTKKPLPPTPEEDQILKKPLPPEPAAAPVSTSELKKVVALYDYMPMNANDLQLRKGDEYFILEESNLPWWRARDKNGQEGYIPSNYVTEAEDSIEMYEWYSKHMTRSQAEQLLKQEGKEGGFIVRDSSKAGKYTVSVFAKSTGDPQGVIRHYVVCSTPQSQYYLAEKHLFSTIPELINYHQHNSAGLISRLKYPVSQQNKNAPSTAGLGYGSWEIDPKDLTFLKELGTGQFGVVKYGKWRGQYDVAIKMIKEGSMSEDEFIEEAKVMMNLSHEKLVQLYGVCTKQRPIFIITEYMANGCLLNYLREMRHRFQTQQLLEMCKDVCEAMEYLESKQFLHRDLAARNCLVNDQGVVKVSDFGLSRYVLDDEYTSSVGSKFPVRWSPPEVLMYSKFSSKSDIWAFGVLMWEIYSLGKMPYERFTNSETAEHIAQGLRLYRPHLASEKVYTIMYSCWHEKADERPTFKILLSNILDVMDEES

C=CC(=O)N1CCC[C@@H](n2nc(-c3ccc(Oc4ccccc4)cc3)c3c(N)ncnc32)C1 [ibrutinib]
number of kinases inhibited (251 kinases): 21 kinases | sequential episodes of severe autoimmune hemolytic anemia and ITP [1]: ceased after initiation of treatment with ibrutinib | activity in other hematological malignancies [2]: demonstrated activity in other hematological malignancies

C=CC(=O)N1CCC(CNc2ncnc(N)c2-c2ccc(Oc3ccccc3)cc2)CC1 [evobrutinib]
efficacy in multiple sclerosis [3]: demonstrated efficacy for multiple sclerosis

C=CC(=O)Nc1cccc(Nc2nc(Nc3ccc(OCCOC)cc3)ncc2F)c1 [CC-292]
tolerability (BTK; doses with 100% occupancy): well tolerated | occupancy of the BTK enzyme (BTK): 100%
